According to US20070282007A1, “TREATMENT OF PAIN DISORDERS WITH trans 4-(3,4-DICHLOROPHENYL)-1,2,3,4-TETRAHYDRO-1-NAPHTHALENAMINE AND ITS FORMAMIDE” (SEPRACOR INC., priority 2006, published 2007):

Assays:
[1] = molecular target: H2 (Homo sapiens, UniProt P25021); assay: In vitro radioligand binding assay, H2; conditions: read-out: Ki, H2
[2] = tested on: Rat SNL Model; assay: SNL model of neuropathic pain, mechanical allodynia testing; assay type: in vivo
Protocol: The animals were anesthetized with isoflurane, the left L5 transverse process was removed, and the L5 and L6 spinal nerves were tightly ligated with 6-0 silk suture. The wound was then closed with internal sutures and external staples. Wound clips were removed 10-11 days following surgery.
Animals were placed on a perforated metallic platform and allowed to acclimate to their surroundings for a minimum of 30 minutes before testing. The mean and standard error of the mean (SEM) were determined for each animal in each treatment group. Since this stimulus is normally not considered painful, significant injury-induced increases in responsiveness in this test are interpreted as a measure of mechanical allodynia. Mechanical allodynia was evaluated 14 days post-surgery.
Ten rats were studied per group and the tests were performed blind. (1R,4S)-4-(3,4-dichlorophenyl)-1,2,3,4-tetrahydro-1-naphthalenamine (P) was evaluated at 3 doses (5, 10 and 15 mg/kg), administered orally and compared with a vehicle control group. Gabapentin (100 mg/kg) and duloxetine (30 mg/kg) administered orally under the same experimental conditions, were used as comparator substances. Mechanical allodynia and hyperalgesia testing were conducted at baseline and 1, 2 and 4 hours after test article administration.

[3] = molecular target: T1, recombinant human Dopamine (DA) transporter (Homo sapiens, UniProt Q01959); assay: Functional uptake of DA into cells expressing recombinant human transporters; assay type: cell-based; conditions: read-out: IC50 inhibition of functional uptake in human transporters, Dopamine (DA)
T1 construct: expressed in transfected cells
T1 sequence (Q01959 whole entry): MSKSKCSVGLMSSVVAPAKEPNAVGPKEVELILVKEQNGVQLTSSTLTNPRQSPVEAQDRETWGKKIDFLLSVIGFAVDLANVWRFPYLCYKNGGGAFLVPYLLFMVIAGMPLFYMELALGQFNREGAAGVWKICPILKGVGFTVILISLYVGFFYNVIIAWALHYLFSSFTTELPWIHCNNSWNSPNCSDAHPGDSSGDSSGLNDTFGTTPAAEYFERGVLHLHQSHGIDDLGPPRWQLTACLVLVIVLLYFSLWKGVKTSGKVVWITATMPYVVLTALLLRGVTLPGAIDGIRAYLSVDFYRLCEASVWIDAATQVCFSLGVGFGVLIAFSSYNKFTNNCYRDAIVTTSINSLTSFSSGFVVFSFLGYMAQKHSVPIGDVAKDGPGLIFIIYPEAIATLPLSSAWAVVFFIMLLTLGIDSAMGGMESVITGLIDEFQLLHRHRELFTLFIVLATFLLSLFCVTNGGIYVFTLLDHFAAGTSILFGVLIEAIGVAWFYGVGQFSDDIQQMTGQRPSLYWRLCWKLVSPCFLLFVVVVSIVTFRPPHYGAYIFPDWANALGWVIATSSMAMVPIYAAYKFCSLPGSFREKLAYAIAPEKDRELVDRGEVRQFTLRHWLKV

[4] = molecular target: Na^+ Channel Site 2; assay: In vitro radioligand binding assay, Na+ channel site 2
[5] = tested on: Long-Evans derived rats; assay: Spontaneous locomotor activity study; assay type: in vivo, rat; conditions: mean ± SEM
Protocol: The effects on locomotor activity were studied in Long-Evans derived rats following protocol outlined in Dews P., Br. J. Pharmacol., 8: 46 (1953).
This effect was still evident 2 hours following drug administration. On the basis of these studies, CNS effects and long duration of action may be anticipated at sufficient clinical doses.

[6] = molecular target: Ca^2+ Channel Verapamil Site; assay: In vitro radioligand binding assay, Ca2+ channel verapamil site
[7] = molecular target: 5-HT2C (Homo sapiens, UniProt P28335); assay: In vitro radioligand binding assay, 5-HT2C
5-HT2C, sequence (P28335 33-458, species assumed): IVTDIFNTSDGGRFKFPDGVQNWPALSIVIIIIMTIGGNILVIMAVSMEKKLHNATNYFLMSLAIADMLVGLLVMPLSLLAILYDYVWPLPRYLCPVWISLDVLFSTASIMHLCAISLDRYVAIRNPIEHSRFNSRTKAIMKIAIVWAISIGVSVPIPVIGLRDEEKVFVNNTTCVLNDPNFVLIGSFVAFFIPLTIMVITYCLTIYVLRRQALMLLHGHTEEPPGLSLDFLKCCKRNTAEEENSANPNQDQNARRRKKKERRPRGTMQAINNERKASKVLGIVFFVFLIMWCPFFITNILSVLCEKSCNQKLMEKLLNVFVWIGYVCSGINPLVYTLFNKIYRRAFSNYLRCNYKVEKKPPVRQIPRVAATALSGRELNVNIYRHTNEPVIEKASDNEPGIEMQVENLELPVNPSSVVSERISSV

[8] = molecular target: T2, 5-HT1A (Homo sapiens, UniProt P08908); assay: In vitro radioligand binding assay, 5-HT1A
T2 sequence (P08908 1-422): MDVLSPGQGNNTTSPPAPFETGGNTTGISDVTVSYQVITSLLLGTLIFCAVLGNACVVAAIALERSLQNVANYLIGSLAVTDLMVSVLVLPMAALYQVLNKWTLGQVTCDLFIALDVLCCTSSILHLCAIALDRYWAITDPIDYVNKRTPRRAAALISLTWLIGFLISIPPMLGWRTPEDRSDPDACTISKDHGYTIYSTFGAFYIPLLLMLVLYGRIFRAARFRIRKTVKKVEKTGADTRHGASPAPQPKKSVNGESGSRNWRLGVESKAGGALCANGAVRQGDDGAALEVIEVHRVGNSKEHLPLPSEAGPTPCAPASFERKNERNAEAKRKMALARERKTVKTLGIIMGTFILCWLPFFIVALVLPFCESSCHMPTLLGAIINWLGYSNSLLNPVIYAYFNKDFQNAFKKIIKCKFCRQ

[9] = molecular target: 5-HT2A (Homo sapiens, UniProt P28223); assay: In vitro radioligand binding assay, 5-HT2A
5-HT2A, sequence (P28223 whole entry, species assumed): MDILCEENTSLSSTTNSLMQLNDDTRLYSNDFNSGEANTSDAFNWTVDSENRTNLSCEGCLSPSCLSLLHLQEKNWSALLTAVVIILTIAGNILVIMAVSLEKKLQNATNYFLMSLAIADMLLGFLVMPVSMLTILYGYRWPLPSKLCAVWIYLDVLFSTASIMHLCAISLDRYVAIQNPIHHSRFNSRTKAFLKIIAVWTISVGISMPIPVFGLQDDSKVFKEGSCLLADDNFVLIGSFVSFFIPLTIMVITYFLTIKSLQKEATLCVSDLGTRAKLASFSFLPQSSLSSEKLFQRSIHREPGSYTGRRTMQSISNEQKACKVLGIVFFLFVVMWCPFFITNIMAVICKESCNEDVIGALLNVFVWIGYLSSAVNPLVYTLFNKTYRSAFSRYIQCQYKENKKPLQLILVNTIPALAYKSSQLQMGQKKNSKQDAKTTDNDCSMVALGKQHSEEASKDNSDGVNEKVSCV

[10] = molecular target: T3, M3 receptor (Cavia porcellus, UniProt H0W1Z3); assay: Carbachol-induced contraction of the isolated Guinea pig ileum
T3 construct: from tissue; host or cells: isolated guinea pig ileum
T3 sequence (H0W1Z3 1-590): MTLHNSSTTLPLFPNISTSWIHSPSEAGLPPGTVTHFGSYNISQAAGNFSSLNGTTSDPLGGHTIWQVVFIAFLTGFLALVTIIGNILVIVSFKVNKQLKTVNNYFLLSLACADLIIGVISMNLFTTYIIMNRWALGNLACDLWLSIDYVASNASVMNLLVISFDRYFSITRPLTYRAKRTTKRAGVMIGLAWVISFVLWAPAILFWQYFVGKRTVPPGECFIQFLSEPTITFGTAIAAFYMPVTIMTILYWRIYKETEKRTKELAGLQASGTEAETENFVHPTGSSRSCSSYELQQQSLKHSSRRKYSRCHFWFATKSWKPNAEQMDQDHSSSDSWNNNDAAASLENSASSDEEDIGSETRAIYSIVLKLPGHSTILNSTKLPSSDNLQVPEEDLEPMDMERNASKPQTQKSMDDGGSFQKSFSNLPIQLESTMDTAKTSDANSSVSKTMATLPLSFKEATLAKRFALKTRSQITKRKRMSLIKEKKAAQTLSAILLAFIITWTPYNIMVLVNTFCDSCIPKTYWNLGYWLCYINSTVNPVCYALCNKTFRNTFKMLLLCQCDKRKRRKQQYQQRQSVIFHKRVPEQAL

[11] = tested on: rats; assay: Formalin paw test in the rat (late phase), flinches counted; assay type: in vivo
Protocol: Rats were given an intraplantar injection of 5% formalin (50 μl) into the posterior left paw. […] The number of flinches was counted for 15 minutes, beginning 20 minutes after injection of formalin. Eight rats were studied per group. The test was performed blind. […] Data were analyzed by comparing treated groups with vehicle control using unpaired Mann-Whitney U tests.

[12] = molecular target: hERG channel (Homo sapiens, UniProt Q12809); assay: hERG channel current in stably transfected HEK293 cells
hERG channel, sequence (Q12809 whole entry): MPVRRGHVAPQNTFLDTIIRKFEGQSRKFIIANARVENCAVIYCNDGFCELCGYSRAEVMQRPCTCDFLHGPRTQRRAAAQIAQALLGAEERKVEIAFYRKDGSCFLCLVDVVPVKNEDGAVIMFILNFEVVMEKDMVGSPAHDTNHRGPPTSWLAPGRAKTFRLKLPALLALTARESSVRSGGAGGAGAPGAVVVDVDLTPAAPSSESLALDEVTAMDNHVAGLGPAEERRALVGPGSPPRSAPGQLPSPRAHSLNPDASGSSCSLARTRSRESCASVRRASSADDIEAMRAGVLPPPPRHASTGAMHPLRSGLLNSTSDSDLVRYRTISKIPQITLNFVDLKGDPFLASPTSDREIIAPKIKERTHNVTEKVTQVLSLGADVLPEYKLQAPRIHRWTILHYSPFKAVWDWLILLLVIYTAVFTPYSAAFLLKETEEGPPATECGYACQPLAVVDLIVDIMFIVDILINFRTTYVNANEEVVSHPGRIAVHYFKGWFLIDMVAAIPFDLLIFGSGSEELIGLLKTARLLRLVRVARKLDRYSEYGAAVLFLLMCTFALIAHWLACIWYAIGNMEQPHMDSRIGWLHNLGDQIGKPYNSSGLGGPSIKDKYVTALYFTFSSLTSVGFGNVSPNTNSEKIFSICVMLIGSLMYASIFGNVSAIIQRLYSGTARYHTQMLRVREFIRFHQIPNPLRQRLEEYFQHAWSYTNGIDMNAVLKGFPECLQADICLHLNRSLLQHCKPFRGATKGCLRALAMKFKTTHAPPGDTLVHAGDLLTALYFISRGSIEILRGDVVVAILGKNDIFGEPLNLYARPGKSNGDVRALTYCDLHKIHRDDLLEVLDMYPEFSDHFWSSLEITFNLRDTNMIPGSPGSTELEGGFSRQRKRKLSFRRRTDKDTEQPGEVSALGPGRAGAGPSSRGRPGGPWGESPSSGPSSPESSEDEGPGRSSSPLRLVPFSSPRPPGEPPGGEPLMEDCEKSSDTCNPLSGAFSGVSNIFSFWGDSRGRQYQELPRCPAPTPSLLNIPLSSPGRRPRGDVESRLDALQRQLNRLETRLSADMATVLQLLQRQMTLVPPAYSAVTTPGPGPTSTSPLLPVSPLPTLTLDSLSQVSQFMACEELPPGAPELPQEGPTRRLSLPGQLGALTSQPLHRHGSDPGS
Protocol: Studies were conducted to determine effects on IKr, the rapidly activating delayed rectifier cardiac potassium current in the human heart. […] In this assay system, HERG channel current serves as a surrogate for IKr.

[13] = molecular target: T4, NE transporter (Homo sapiens, UniProt P23975); assay: Radioligand binding assay, NE transporter ([3H]nisoxetine displacement); conditions: human recombinant; [3H]nisoxetine 0.3 nM; read-out: Ki, Norepinephrine (NE) transporter
T4 construct: expressed in transfected cells
T4 sequence (P23975 whole entry): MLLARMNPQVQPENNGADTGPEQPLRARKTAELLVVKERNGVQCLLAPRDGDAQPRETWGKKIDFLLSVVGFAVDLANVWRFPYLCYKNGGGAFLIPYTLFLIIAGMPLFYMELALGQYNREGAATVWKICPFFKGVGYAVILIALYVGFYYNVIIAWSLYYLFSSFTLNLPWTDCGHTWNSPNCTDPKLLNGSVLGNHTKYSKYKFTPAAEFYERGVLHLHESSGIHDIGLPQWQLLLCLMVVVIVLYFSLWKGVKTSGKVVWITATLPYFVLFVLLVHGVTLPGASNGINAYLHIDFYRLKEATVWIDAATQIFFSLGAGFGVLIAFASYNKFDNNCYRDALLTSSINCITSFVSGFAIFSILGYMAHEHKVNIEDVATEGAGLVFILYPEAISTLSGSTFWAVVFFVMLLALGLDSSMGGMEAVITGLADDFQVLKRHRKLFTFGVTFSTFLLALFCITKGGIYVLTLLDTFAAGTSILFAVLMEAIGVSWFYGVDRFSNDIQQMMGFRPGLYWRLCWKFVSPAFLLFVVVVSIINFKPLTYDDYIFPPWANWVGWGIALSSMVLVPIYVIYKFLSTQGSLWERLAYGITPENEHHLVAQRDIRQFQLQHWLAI
Protocol: The assays measured the affinity of the two compounds for transporters of the monoamines 5-HT, NE and DA. […] The transporters were human recombinant proteins expressed in mammalian cells. Binding to the 5-HT transporter was assessed by evaluating displacement of [^3H]paroxetine (0.1 nM). […] Binding to the NE transporter was assessed by evaluating displacement of [^3H]nisoxetine (0.3 nM).

[14] = molecular target: Dopamine (DA) uptake (Rattus norvegicus, UniProt P23977); assay: biochemical
Dopamine (DA) uptake, sequence (P23977 whole entry): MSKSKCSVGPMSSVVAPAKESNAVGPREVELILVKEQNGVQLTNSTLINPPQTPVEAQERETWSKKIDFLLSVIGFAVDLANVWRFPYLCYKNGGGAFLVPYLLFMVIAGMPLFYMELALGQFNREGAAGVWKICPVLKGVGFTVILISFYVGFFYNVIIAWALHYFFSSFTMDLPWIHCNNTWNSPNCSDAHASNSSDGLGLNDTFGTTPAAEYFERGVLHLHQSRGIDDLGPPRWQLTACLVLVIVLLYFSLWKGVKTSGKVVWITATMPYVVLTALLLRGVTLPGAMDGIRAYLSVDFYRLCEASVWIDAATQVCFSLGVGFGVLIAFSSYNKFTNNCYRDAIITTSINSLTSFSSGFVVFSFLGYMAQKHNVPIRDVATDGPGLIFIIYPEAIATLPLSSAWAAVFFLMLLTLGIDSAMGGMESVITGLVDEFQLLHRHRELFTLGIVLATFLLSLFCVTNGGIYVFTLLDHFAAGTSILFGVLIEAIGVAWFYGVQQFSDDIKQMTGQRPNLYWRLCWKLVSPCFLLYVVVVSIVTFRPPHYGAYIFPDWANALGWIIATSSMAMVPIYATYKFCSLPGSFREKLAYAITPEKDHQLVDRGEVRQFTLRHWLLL

[15] = 5 mg/kg p.o. 60 min before the test
[16] = 10 mg/kg p.o. 60 min before the test
[17] = 15 mg/kg p.o. 60 min before the test

H2, sequence (P25021 whole entry): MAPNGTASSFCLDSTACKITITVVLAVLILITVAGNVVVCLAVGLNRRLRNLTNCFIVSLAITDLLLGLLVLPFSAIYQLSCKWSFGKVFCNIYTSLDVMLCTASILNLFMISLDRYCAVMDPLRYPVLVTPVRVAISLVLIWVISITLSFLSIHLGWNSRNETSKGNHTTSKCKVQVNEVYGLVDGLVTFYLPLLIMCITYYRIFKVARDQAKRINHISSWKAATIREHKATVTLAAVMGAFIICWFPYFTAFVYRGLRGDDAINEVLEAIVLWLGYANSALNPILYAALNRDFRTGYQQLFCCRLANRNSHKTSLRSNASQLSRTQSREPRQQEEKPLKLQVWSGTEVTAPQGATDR

N[C@@H]1CC[C@@H](c2ccc(Cl)c(Cl)c2)c2ccccc21 [Compound P, (1R,4S)-trans 4-(3,4-dichlorophenyl)-1,2,3,4-tetrahydro-1-napthalenamine]
Ki [1]: 4000 nM
Mechanical Allodynia, Paw Withdrawal Threshold (Mean ± SEM) ([2]; 5 mg/kg PO, 0 h (Baseline)): 3.1 ± 0.2 g
Mechanical Allodynia, Paw Withdrawal Threshold (Mean ± SEM) ([2]; 5 mg/kg PO, 1 h): 3.7 ± 0.3 g
Mechanical Allodynia, Paw Withdrawal Threshold (Mean ± SEM) ([2]; 5 mg/kg PO, 2 h): 3.2 ± 0.2 g
Mechanical Allodynia, Paw Withdrawal Threshold (Mean ± SEM) ([2]; 5 mg/kg PO, 4 h): 3.9 ± 0.2 g
Mechanical Allodynia, Paw Withdrawal Threshold (Mean ± SEM) ([2]; 10 mg/kg PO, 0 h (Baseline)): 2.8 ± 0.2 g
Mechanical Allodynia, Paw Withdrawal Threshold (Mean ± SEM) ([2]; 10 mg/kg PO, 1 h): 5.0 ± 0.3 g
Mechanical Allodynia, Paw Withdrawal Threshold (Mean ± SEM) ([2]; 10 mg/kg PO, 2 h): 5.7 ± 0.5 g
Mechanical Allodynia, Paw Withdrawal Threshold (Mean ± SEM) ([2]; 10 mg/kg PO, 4 h): 6.6 ± 0.4 g
Mechanical Allodynia, Paw Withdrawal Threshold (Mean ± SEM) ([2]; 15 mg/kg PO, 0 h (Baseline)): 2.9 ± 0.1 g
Mechanical Allodynia, Paw Withdrawal Threshold (Mean ± SEM) ([2]; 15 mg/kg PO, 1 h): 8.8 ± 0.6 g
Mechanical Allodynia, Paw Withdrawal Threshold (Mean ± SEM) ([2]; 15 mg/kg PO, 2 h): 7.5 ± 0.5 g
Mechanical Allodynia, Paw Withdrawal Threshold (Mean ± SEM) ([2]; 15 mg/kg PO, 4 h): 13.6 ± 0.3 g
IC50 [3]: 12.9 nM
Ki [4]: 1000 nM
Total Activity Counts, 71–80 Minutes ([5]; 2.5 mg/kg single i.p. dose): 49 ± 6
Total Activity Counts, 91–100 Minutes ([5]; 2.5 mg/kg single i.p. dose): 54 ± 9
Total Activity Counts, 111–120 Minutes ([5]; 2.5 mg/kg single i.p. dose): 34 ± 9
Total Activity Counts, Total 1st Hour ([5]; 2.5 mg/kg single i.p. dose): 577 ± 54^1
Total Activity Counts, Total 2nd Hour ([5]; 2.5 mg/kg single i.p. dose): 257 ± 36
Total Activity Counts, 71–80 Minutes ([5]; 5.0 mg/kg single i.p. dose): 38 ± 3
Total Activity Counts, 91–100 Minutes ([5]; 5.0 mg/kg single i.p. dose): 26 ± 26
Total Activity Counts, 111–120 Minutes ([5]; 5.0 mg/kg single i.p. dose): 23 ± 14
Total Activity Counts, Total 1st Hour ([5]; 5.0 mg/kg single i.p. dose): 444 ± 91
Total Activity Counts, Total 2nd Hour ([5]; 5.0 mg/kg single i.p. dose): 160 ± 32
Ki [6]: 1000 nM
Ki [7]: 5100 nM
Ki [8]: 1100 nM
Ki [9]: 720 nM
IC50 ([10]; duplicate samples, read-out: IC50 for inhibition of carbachol-induced contraction of the Guinea Pig ileum): 9000 nM
M3 agonist effect on isolated Guinea pig ileum ([10]; graded concentrations, compound alone): no an M3 agonist
NUMBER OF FLINCHES (20 to 35 min after formalin), mean ± s.e.m. [11, 15]: 89.0 ± 18.4NS
NUMBER OF FLINCHES, % change from control [11, 15]: 0%
NUMBER OF FLINCHES (20 to 35 min after formalin), mean ± s.e.m. [11, 16]: 76.4 ± 15.2NS
NUMBER OF FLINCHES, % change from control [11, 16]: −15%
NUMBER OF FLINCHES (20 to 35 min after formalin), mean ± s.e.m. [11, 17]: 44.6 ± 13.6
NUMBER OF FLINCHES, % change from control [11, 17]: −50%
IC50 [12]: 800 nM
Ki [13]: 20 nM
IC50 [14]: 6.4 nM
